# Assay results: ChEMBL document CHEMBL4630901 (2021); call rule not given here
# Assays:
# [1] = biological target: T1, Prostaglandin F2-alpha receptor (Homo sapiens, UniProt P43088); assay: Panlabs binding assay
# [2] = biological target: 5-hydroxytryptamine receptor 1D (Homo sapiens) (UniProt P28221); details: Compound concentration 10.0 uM
# [3] = biological target: T1, Prostaglandin F2-alpha receptor; assay: Bayer inhouse assay (human)
# [4] = biological target: T2, 5-hydroxytryptamine receptor 1A (Homo sapiens) (UniProt P08908); details: Compound concentration 10.0 uM
# T2 sequence (whole entry): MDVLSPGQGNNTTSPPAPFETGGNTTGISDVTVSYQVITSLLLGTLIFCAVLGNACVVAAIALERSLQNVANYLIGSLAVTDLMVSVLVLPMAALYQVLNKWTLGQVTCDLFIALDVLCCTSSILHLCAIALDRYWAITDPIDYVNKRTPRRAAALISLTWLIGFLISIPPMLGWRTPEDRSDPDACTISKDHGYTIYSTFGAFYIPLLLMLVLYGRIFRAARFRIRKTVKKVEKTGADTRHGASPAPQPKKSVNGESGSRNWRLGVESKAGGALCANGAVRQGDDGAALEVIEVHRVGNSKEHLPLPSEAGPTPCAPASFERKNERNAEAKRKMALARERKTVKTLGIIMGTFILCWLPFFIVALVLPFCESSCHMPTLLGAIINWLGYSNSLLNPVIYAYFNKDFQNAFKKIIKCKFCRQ
# [5] = biological target: Androgen receptor (Homo sapiens) (UniProt P10275); details: Compound concentration 10.0 uM
# Androgen receptor (Homo sapiens), sequence (P10275 whole entry): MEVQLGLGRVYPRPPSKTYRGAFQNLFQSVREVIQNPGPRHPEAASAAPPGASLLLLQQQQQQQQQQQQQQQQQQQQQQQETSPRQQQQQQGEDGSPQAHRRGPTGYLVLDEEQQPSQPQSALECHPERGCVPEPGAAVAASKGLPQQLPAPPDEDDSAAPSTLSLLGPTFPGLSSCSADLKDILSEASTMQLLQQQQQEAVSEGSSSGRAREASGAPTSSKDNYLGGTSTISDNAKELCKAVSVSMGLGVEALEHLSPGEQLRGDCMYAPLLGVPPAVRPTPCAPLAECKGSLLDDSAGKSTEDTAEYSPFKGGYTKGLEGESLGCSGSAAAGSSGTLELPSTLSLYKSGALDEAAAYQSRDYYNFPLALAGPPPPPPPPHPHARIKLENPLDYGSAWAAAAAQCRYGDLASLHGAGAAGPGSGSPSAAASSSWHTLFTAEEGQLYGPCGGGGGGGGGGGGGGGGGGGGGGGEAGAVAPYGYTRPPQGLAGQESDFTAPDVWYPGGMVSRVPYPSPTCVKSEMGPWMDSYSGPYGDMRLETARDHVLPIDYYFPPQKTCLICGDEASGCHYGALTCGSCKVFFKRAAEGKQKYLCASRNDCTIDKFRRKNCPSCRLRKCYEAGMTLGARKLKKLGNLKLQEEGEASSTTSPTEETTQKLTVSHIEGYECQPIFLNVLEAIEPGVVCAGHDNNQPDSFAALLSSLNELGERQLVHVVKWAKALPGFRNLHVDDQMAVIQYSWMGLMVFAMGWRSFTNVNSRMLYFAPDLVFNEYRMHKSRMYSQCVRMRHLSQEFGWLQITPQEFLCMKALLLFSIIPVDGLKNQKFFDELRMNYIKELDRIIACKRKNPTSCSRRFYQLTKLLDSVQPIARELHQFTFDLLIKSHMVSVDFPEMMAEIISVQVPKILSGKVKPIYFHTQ
# [6] = biological target: B2 bradykinin receptor (Homo sapiens) (UniProt P30411); details: Compound concentration 10.0 uM
# B2 bradykinin receptor (Homo sapiens), sequence (P30411 whole entry): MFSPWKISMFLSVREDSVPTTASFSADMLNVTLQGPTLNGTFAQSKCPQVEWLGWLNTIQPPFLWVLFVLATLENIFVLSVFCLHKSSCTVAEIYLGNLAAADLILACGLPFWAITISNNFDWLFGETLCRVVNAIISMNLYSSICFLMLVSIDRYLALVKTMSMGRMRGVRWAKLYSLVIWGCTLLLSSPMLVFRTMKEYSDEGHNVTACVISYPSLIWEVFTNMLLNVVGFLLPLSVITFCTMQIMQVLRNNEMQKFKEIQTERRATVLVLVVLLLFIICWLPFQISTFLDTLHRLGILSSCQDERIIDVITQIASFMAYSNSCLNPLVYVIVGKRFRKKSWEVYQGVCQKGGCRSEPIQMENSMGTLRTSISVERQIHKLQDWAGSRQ
# [7] = biological target: Purinergic P2Y (Rattus norvegicus) (UniProt O35811+Q9EPX4+P49651+Q63371+P41232+O35881+Q6GUG4); details: Compound concentration 10.0 uM
# [8] = biological target: T3, Prostaglandin D2 receptor 2 (Homo sapiens) (UniProt Q9Y5Y4); assay: Prostanoid CRTH2 Eurofins-Panlabs radioligand binding assay; set-up: ligand concentration 1 nM
# T3 sequence (whole entry): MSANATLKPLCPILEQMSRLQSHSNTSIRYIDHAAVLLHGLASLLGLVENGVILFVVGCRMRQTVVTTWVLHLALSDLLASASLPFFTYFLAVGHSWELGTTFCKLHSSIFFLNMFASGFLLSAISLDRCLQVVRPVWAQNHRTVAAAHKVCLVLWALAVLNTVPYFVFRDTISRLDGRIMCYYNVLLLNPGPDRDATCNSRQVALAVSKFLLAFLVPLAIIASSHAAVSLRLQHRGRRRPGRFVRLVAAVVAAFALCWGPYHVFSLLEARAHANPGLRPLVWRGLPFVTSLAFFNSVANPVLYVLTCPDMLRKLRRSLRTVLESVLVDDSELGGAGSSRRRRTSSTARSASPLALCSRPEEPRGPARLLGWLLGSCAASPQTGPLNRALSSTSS
# [9] = biological target: T4, Muscarinic acetylcholine receptor M4 (Homo sapiens) (UniProt P08173); details: Compound concentration 10.0 uM
# T4 sequence (whole entry): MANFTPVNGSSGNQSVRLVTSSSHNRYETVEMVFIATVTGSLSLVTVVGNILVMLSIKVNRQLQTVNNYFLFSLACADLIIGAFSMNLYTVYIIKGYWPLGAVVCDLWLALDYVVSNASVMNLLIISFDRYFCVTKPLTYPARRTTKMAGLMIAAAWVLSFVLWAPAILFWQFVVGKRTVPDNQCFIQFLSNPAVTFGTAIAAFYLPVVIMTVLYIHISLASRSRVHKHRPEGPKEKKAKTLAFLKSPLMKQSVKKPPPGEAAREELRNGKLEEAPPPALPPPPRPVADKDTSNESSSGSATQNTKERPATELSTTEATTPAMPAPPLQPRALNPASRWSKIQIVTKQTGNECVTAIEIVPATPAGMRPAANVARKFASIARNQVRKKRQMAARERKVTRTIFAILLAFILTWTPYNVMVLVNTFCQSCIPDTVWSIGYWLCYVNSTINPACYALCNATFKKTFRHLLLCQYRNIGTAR
# [10] = biological target: Glutamate NMDA receptor (Rattus norvegicus) (UniProt P35439+Q00959+Q00960+Q00961+Q62645+Q8VHN2+Q9R1M7); details: Compound concentration 10.0 uM
# [11] = biological target: GABA-A receptor; anion channel (Rattus norvegicus) (UniProt O09028+P15431+P18506+P18508+P19969+P20236+P23574+P23576+P28471+P28473+P30191+P62813+P63079+P63138+Q91ZM7+Q9ES14); details: Compound concentration 10.0 uM
# [12] = biological target: Beta-3 adrenergic receptor (Homo sapiens) (UniProt P13945); details: Compound concentration 10.0 uM
# Beta-3 adrenergic receptor (Homo sapiens), sequence (P13945 whole entry, looked up): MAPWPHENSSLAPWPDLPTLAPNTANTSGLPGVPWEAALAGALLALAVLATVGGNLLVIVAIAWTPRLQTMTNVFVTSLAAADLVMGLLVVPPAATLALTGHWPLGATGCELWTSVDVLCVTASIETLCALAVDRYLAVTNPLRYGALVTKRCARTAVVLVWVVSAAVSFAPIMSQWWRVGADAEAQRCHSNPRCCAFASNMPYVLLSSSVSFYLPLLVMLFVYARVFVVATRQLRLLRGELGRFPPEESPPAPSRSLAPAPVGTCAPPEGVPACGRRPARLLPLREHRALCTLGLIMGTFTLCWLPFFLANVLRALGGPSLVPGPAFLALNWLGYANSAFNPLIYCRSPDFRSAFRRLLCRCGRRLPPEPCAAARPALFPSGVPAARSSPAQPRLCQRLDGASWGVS
# [13] = biological target: Type-1 angiotensin II receptor (Homo sapiens) (UniProt P30556); details: Compound concentration 10.0 uM
# Type-1 angiotensin II receptor (Homo sapiens), sequence (P30556 whole entry): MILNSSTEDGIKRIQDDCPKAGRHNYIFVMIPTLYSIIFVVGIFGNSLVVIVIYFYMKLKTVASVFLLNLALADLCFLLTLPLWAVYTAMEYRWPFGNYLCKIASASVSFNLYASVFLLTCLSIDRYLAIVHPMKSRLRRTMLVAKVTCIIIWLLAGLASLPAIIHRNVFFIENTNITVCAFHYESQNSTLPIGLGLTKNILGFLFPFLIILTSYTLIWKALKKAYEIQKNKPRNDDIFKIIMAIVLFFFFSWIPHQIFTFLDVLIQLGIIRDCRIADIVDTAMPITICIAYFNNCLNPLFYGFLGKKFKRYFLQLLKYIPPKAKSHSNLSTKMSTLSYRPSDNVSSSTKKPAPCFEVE
# [14] = biological target: D(1A) dopamine receptor (Homo sapiens) (UniProt P21728); details: Compound concentration 10.0 uM
# D(1A) dopamine receptor (Homo sapiens), sequence (P21728 whole entry): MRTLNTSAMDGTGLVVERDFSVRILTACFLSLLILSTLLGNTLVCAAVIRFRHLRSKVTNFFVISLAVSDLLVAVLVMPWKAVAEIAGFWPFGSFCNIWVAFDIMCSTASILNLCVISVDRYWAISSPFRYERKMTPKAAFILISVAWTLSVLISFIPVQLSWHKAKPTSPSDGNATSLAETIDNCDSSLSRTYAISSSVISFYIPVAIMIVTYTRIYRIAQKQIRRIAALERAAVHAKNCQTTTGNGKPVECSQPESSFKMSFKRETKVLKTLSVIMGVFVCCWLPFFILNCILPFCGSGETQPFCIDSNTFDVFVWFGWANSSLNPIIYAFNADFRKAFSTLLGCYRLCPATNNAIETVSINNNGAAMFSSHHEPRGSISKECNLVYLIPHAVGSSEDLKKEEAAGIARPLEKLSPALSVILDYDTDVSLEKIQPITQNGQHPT
# [15] = biological target: 5-hydroxytryptamine receptor 2B (Homo sapiens) (UniProt P41595); details: Compound concentration 10.0 uM
# 5-hydroxytryptamine receptor 2B (Homo sapiens), sequence (P41595 whole entry): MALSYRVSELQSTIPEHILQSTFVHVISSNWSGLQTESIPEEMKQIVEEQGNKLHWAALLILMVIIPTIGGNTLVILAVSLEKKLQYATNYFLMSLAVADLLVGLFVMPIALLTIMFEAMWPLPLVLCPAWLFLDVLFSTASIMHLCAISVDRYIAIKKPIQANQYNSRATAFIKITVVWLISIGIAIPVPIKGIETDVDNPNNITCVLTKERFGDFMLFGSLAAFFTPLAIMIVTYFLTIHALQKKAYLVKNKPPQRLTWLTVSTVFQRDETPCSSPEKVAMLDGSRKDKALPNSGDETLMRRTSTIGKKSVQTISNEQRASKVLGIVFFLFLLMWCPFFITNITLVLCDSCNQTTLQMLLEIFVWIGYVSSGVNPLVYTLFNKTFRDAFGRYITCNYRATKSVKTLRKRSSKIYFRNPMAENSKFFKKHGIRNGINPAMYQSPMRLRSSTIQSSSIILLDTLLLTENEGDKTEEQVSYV
# [16] = biological target: T5, Alpha-1A adrenergic receptor (Homo sapiens) (UniProt P35348); details: Rattus norvegicus; Compound concentration 10.0 uM
# T5 sequence (whole entry): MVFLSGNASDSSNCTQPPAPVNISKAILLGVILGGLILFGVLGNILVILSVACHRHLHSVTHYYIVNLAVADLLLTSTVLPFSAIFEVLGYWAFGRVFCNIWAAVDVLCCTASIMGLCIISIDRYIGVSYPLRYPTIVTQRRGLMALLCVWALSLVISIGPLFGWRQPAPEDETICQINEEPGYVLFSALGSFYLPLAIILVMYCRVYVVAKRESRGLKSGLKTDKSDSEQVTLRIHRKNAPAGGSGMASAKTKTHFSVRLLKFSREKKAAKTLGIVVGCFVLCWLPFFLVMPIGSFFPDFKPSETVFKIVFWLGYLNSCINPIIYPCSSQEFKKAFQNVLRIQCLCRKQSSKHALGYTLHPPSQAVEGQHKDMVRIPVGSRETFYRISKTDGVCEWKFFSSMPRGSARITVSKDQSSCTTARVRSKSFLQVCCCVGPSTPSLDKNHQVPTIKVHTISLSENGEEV
# [17] = biological target: Mu-type opioid receptor (Homo sapiens) (UniProt P35372); details: Compound concentration 10.0 uM
# Mu-type opioid receptor (Homo sapiens), sequence (P35372 whole entry): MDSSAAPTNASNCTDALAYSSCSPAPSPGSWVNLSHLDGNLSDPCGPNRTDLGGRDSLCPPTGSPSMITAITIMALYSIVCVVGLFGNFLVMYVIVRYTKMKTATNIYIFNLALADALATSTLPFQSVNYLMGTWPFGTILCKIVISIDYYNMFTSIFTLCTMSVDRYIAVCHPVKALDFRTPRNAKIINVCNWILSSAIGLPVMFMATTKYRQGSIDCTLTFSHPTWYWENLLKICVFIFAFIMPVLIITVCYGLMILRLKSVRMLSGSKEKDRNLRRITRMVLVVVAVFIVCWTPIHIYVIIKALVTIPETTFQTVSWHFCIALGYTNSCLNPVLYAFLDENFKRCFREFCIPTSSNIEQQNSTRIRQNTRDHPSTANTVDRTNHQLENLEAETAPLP
# [18] = biological target: Sodium-dependent serotonin transporter (Homo sapiens) (UniProt P31645); details: Compound concentration 10.0 uM
# Sodium-dependent serotonin transporter (Homo sapiens), sequence (P31645 whole entry, looked up): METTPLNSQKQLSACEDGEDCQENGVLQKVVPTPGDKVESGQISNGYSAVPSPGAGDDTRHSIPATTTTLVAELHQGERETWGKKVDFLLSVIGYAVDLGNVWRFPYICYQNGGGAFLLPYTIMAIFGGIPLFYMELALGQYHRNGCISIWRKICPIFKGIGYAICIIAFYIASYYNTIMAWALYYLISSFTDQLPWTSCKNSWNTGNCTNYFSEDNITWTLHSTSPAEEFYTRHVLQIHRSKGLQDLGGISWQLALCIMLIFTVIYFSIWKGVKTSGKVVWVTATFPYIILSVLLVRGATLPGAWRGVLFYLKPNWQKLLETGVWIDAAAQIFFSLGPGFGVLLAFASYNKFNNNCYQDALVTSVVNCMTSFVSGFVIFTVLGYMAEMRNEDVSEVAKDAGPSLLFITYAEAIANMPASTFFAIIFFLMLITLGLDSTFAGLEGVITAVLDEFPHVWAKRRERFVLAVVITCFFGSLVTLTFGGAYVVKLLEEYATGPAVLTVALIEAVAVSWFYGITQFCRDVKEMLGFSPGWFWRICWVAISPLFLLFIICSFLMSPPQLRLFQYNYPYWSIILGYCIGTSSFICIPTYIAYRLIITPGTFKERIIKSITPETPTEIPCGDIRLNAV
# [19] = biological target: Histamine H1 receptor (Homo sapiens) (UniProt P35367); details: Compound concentration 10.0 uM
# Histamine H1 receptor (Homo sapiens), sequence (P35367 whole entry): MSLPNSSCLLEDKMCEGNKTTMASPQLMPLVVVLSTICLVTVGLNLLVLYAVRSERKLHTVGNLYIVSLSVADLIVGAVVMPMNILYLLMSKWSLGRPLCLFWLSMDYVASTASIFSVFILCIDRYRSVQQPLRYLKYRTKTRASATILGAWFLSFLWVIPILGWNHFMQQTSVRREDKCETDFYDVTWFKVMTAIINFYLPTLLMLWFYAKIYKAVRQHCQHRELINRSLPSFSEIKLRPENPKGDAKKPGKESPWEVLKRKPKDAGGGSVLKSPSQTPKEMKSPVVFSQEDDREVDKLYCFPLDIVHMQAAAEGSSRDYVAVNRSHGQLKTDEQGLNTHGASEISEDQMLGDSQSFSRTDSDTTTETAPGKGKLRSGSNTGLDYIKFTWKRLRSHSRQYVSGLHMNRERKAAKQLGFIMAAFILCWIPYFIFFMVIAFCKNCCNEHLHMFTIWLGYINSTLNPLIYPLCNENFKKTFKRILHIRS
# T1 sequence (P43088 whole entry): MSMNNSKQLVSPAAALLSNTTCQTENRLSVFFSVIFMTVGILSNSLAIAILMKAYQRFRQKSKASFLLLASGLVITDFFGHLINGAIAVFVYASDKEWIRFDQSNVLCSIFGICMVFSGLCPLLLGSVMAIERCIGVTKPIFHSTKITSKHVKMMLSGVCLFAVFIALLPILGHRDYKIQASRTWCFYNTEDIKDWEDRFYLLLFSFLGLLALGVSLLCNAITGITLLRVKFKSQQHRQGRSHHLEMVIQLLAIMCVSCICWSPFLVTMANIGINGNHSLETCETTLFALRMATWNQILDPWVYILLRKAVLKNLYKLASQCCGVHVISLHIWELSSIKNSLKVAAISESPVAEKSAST
smiles,measurement,setting,value
Cc1c(N2CCNCC2)nc2ccc(Br)cc2c1C(=O)NC[C@H](CCC(=O)O)c1ccccc1Cl [BAY-403],IC50,[1],> 10 µM (not active)
same,inhibition,[2],9.12%
same,IC50,[3],1.2 µM (not active)
Cc1c(N2CCCC2)nc2ccc(Br)cc2c1C(=O)NC[C@H](CCC(=O)O)c1ccccc1Cl [BAY-6672],inhibition,[4],3%
same,inhibition,[5],3%
same,inhibition,[6],-6%
same,inhibition,[7],5%
same,inhibition,[8]; Compound concentration 0.001 uM,3%
same,inhibition,[8]; Compound concentration 0.01 uM,2%
same,inhibition,[8]; Compound concentration 0.1 uM,-3%
same,inhibition,[8]; Compound concentration 1.0 uM,-6%
same,inhibition,[8]; Compound concentration 10.0 uM,19%
same,inhibition,[9],6%
same,inhibition,[10],7%
same,inhibition,[11],26%
same,inhibition,[12],21.6%
same,inhibition,[13],11%
same,inhibition,[14],1%
same,inhibition,[15],12%
same,inhibition,[16],6%
same,inhibition,[17],21%
same,inhibition,[18],-4%
same,inhibition,[19],15%
